This assay has as its system SD rats. Briefly: Mineral balance test in rats (absorption rate, internal retention rate, serum concentration). Conditions: oral aqueous solution 2.0 g/day; for Absorption rate of calcium / Absorption rate of iron / Absorption rate of magnesium / Absorption rate of zinc / Internal retention rate of calcium / Internal retention rate of iron / Internal retention rate of magnesium / Internal retention rate of zinc: 14 days, then urine and feces collected for 4 days. Type of assay: in vivo, rat. The text has this: SD rats (males) of 4 weeks of age after birth were preliminarily reared for 1 week and then divided into a control group and 6 sample ingestion groups, each group consisting of 6 animals, at random based on body weight. In the rats of salacinol administration group, 0.1% salacinol aqueous solution was orally administered at a dose of 2.0 g/day per unit weight of rat. In the rats of voglibose administration group, 0.4% voglibose aqueous solution was orally administered at a dose of 2.0 g/day per unit weight of rat. In the rats of acarbose administration group, 0.4% acarbose aqueous solution was orally administered at a dose of 2.0 g/day per unit weight of rat. In the rats of Salacia extract powder administration group, 1% Salacia extract powder aqueous solution was orally administered at a dose of 2.0 g/day per unit weight of rat. In the rats of mulberry extract powder administration group, 1% mulberry extract powder aqueous solution was orally administered at a dose of 2.0 g/day per unit weight of rat. In the rats of Salacia extract powder+green tea extract administration group, 1% Salacia extract powder+1% green tea extract mixed aqueous solution was orally administered at a dose of 2.0 g/day per unit weight of rat. In the rats of control group, water was orally administered at a dose of 2.0 g/day per unit weight of rat. Each rat was reared with a solid feed (CRF-1 mfd. by Oriental Yeast) for 14 days and then transferred into a cage for metabolism analysis, and urine and feces were collected for a period of 4 days to measure concentrations of iron, calcium, magnesium and zinc. Detection of minerals from feces was carried out using inductively coupled plasma emission spectrometry, and those from urine and serum using atomic absorption method. Absorption rate and internal holding rate of each mineral were calculated using the following formulae. Absorbed amount=ingested amount−discharged amount into feces Absorption rate (%)=absorbed amount÷ingested amount×100 Internally retained amount=absorbed amount−discharged amount into urine Internal retention rate (%)=internally retained amount÷ingested amount×100 Results of the absorption rate and internal retention rate of minerals and concentration of mineral in serum by the mineral balance test are respectively shown in Tables 3 to 5.

The values below come from patent US20110052732A1, “MINERAL ABSORPTION ACCELERATOR AND IRON DEFICIENCY ANEMIA IMPROVER OF FOOD COMPOSITION” (FUJIFILM Corporation, priority 2008, published 2011).

Turning to `O=S(=O)([O-])O[C@@H](CO)[C@H](O)C[S@+]1C[C@@H](O)[C@H](O)[C@H]1CO` [Salacinol], the “Absorption rate of calcium” value came out at 33.2%, the “Absorption rate of iron” value came out at 38.5%, the “Absorption rate of magnesium” value is recorded as 20.5% and the “Absorption rate of zinc” value was determined as 30.1%. Further, the “Internal retention rate of calcium” value was 32.3%, the “Internal retention rate of iron” value was 34.2%, the “Internal retention rate of magnesium” value amounted to 23.6% and the “Internal retention rate of zinc” value was 19.5%. The “Concentration of calcium in serum” value turned out to be 11.8 mg/dL, the “Concentration of iron in serum” value came out at 298.6 µg/dL, the “Concentration of magnesium in serum” value is 2.06 mg/dL and the “Concentration of zinc in serum” value was 122.7 µg/dL.

With `OCC(CO)N[C@H]1C[C@](O)(CO)[C@@H](O)[C@H](O)[C@H]1O` [Voglibose, voglibose], the “Absorption rate of calcium” value is given as 32.5%, the “Absorption rate of iron” value was 37.8%, the “Absorption rate of magnesium” value worked out at 21.2% and the “Absorption rate of zinc” value worked out at 29.8%. Further, the “Internal retention rate of calcium” value is reported as 32.1%, the “Internal retention rate of iron” value is recorded as 33.9%, the “Internal retention rate of magnesium” value is recorded as 24.0% and the “Internal retention rate of zinc” value came out at 18.6%. Moreover, the “Concentration of calcium in serum” value stood at 10.9 mg/dL, the “Concentration of iron in serum” value was found to be 292.5 µg/dL, the “Concentration of magnesium in serum” value came out at 2.04 mg/dL and the “Concentration of zinc in serum” value came to 120.2 µg/dL.

Turning to `C[C@H]1O[C@H](O[C@H]2[C@H](O)[C@@H](O)[C@@H](O[C@H]3[C@H](O)[C@@H](O)C(O)O[C@@H]3CO)O[C@@H]2CO)[C@H](O)[C@@H](O)[C@@H]1N[C@H]1C=C(CO)[C@@H](O)[C@H](O)[C@H]1O` (stereo partly drawn) [Acarbose, acarbose], the “Absorption rate of calcium” value stood at 32.8%, the “Absorption rate of iron” value was found to be 37.5%, the “Absorption rate of magnesium” value was determined as 20.8% and the “Absorption rate of zinc” value came out at 29.3%. The “Internal retention rate of calcium” value is on record as 31.5%, the “Internal retention rate of iron” value stood at 32.8%, the “Internal retention rate of magnesium” value came out at 23.1% and the “Internal retention rate of zinc” value worked out at 18.4%. For the same compound, the “Concentration of calcium in serum” value was found to be 10.9 mg/dL, the “Concentration of iron in serum” value was 289.3 µg/dL, the “Concentration of magnesium in serum” value amounted to 2.01 mg/dL and the “Concentration of zinc in serum” value was found to be 121.3 µg/dL.
